From PubChem BioAssay (NCI)
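All cell lines were grown in 96-well plates and treated with compound for 48 hours. At the TGI there is no net growth.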

How the values were obtained:
Assay in all cases: NCI anticancer screen, dose series, 48 h
MALME-3M melanoma = test system: MALME-3M melanoma
CAKI-1 renal = test system: CAKI-1 renal
UACC-62 melanoma = test system: UACC-62 melanoma
OVCAR-8 ovarian = test system: OVCAR-8 ovarian
SN12C renal = test system: SN12C renal
HS 578T breast = test system: HS 578T breast
OVCAR-3 ovarian = test system: OVCAR-3 ovarian
HCC-2998 colon = test system: HCC-2998 colon
MDA-N = test system: MDA-N
SK-MEL-5 melanoma = test system: SK-MEL-5 melanoma
MOLT-4 leukemia = test system: MOLT-4 leukemia
TK-10 renal = test system: TK-10 renal
SNB-19 CNS = test system: SNB-19 CNS
A498 renal = test system: A498 renal
HOP-92 NSCLC = test system: HOP-92 NSCLC
NCI-H23 lung = test system: NCI-H23 lung
MDA-MB-231 breast = test system: MDA-MB-231 breast
PC-3 prostate = test system: PC-3 prostate

SMILES | TGI (MALME-3M melanoma) | TGI (CAKI-1 renal) | TGI (UACC-62 melanoma) | TGI (OVCAR-8 ovarian) | TGI (SN12C renal) | TGI (HS 578T breast) | TGI (OVCAR-3 ovarian) | TGI (HCC-2998 colon) | TGI (MDA-N) | TGI (SK-MEL-5 melanoma) | TGI (MOLT-4 leukemia) | TGI (TK-10 renal) | TGI (SNB-19 CNS) | TGI (A498 renal) | TGI (HOP-92 NSCLC) | TGI (NCI-H23 lung) | TGI (MDA-MB-231 breast) | TGI (PC-3 prostate)
Cc1n[nH]c(=O)n1/N=C\CC/C=N\n1c(C)n[nH]c1=O | > 100 µM | > 100 µM | > 100 µM | > 100 µM | > 100 µM | > 100 µM | > 100 µM | > 100 µM | > 100 µM | > 100 µM | > 100 µM | > 100 µM | > 100 µM | > 100 µM | > 100 µM | > 100 µM | > 100 µM | > 100 µM
CN(CCCN(C)CCc1ccc(Cl)c(Cl)c1)CCCN1CCCC1 | 3.83 µM | 6.33 µM | 3.49 µM | 10.9 µM | 11.8 µM | 4.31 µM | 14.8 µM | 0.82 µM | 2.65 µM | – | 12.4 µM | 5.52 µM | 13.7 µM | 3.37 µM | 11.5 µM | 14.3 µM | 3.61 µM | 15.1 µM
c1ccc2cc(CNCCOCCOCCNCc3ccc4ccccc4c3)ccc2c1 | 3.9 µM | 3.68 µM | 3.54 µM | 3.77 µM | 4.18 µM | 3.74 µM | 3.7 µM | 0.54 µM | 3.23 µM | 5.66 µM | 4.49 µM | 3.04 µM | 5.31 µM | 3.73 µM | 3.14 µM | 4 µM | 3.11 µM | 5.3 µM
COC(=O)CC(=O)Nc1sccc1S(=O)(=O)c1ccccc1 | > 100 µM | > 100 µM | > 100 µM | > 100 µM | > 100 µM | > 100 µM | 43.5 µM | 41.6 µM | > 100 µM | > 100 µM | > 100 µM | > 100 µM | > 100 µM | > 100 µM | > 100 µM | > 100 µM | > 100 µM | > 100 µM
c1ccc(C2OCC(OC3CCCCO3)CO2)cc1 (stereo not given) | > 100 µM | > 100 µM | > 100 µM | > 100 µM | > 100 µM | > 100 µM | > 100 µM | > 100 µM | > 100 µM | > 100 µM | 68.2 µM | > 100 µM | > 100 µM | > 100 µM | > 100 µM | > 100 µM | > 100 µM | > 100 µM
COc1ccc(C(=O)N(C(=S)OCCOc2ccccc2)c2ccccc2)cc1 | 88.5 µM | > 100 µM | > 100 µM | > 100 µM | > 100 µM | > 100 µM | > 100 µM | > 100 µM | > 100 µM | – | 53.8 µM | > 100 µM | > 100 µM | 73.9 µM | 70.4 µM | > 100 µM | > 100 µM | > 100 µM
O=C1/C(=C/c2ccccc2)CCC/C1=C\c1ccc(O)c(CN2CCCCC2)c1 | 40.2 µM | 18.8 µM | 10.5 µM | 9.54 µM | 9.53 µM | 15.1 µM | 22.9 µM | 5.46 µM | 8.11 µM | 9.62 µM | 8.21 µM | 31 µM | 26 µM | 12.5 µM | 15.4 µM | 15.1 µM | 6.28 µM | 13.8 µM
CC(C)/C(Cl)=N\OC(=O)Nc1ccc(F)cc1F | 3.58 µM | 34.3 µM | 38.7 µM | 31.6 µM | 21.1 µM | 52.7 µM | 6.69 µM | 34 µM | 22.7 µM | 27.4 µM | 3.99 µM | 9.55 µM | 34.8 µM | 31.1 µM | 3.61 µM | 30.1 µM | 6.34 µM | 31.6 µM
O=C1Nc2ccccc2/C1=C/c1c(Cl)[nH]c2ccc(O)cc12 | 15.7 µM | 36 µM | 6.04 µM | 12.8 µM | 5.22 µM | > 100 µM | > 48.1 µM | 24.2 µM | 1.6 µM | 9.54 µM | 40.1 µM | 37.1 µM | > 58.8 µM | 11.3 µM | 45 µM | 13.8 µM | 6.77 µM | 16.3 µM
O=C(/C=C/c1ccccc1)CSc1nc2ccc(I)cc2c(=O)n1Cc1ccccc1 | 51.3 µM | 3.74 µM | > 100 µM | > 100 µM | 30.8 µM | 67.7 µM | > 90.6 µM | 66.9 µM | > 100 µM | 99.3 µM | 35.2 µM | > 84.6 µM | > 100 µM | 46.4 µM | 55.2 µM | > 100 µM | > 100 µM | > 96.4 µM
O=C1/C(=C/c2c(Cl)[nH]c3ccccc23)c2ccccc2N1c1ccccc1 | 18.6 µM | > 100 µM | 21.1 µM | 20.4 µM | 20.3 µM | 30.2 µM | 6.26 µM | 20.7 µM | 3.8 µM | – | 31.8 µM | 39.9 µM | > 100 µM | 40.8 µM | 31.8 µM | 19.3 µM | 29.6 µM | 19.4 µM
